Results published in patent US7153525B1, “Microemulsions as precursors to solid nanoparticles” (The University of Kentucky Research Foundation, priority 2000, dated 2006).

Key:
[1] = Solubility of fluorosurfactants in perflubron; conditions: PDFOA at 25° C.
[2] = Droplet and particle size by photon correlation spectroscopy; type: physicochemical
Protocol: Modeling of E/F microemulsions: An ethanol-in-fluorocarbon(E/F) microemulsion was made having the following components: perflubron (0.7382 g), PDFOA (0.3195 g), and ethanol (0.3603 g). The weight of ethanol corresponded to 25.4% w/w of the final microemulsionor 65.7% of the microemulsion window (see FIG. 2). The average droplet size of 34.9 nm determined by photon correlation spectroscopy (dynamic light scattering at 11.3° for 300 seconds) agreed very well with the predicted ethanol droplet size based on simple mathematical modeling of surfactant-coated ethanol droplets. The total surface area of ethanol droplets that have an average diameter of 34.9 nm can be calculated in a series of equations as follows: Volume of one ethanol droplet=πd^3/6=2.226×10^−17 cm^3 (Equation 1) Total number of ethanol droplets=(0.3603 g[…])/[…]=1.989×10^16 droplets (Equation 2) Total surface area of each droplet=πd^2=3.827×10^−11 cm^2 (Equation 3) Total surface area of all ethanol droplets=1.989×10^16 droplets*3.827×10^−11 cm^2=760966 cm^2. (Equation 4) If we assume that PDFOA head-group (Mw 414.06 g/mol) occupies a space of 30 Å^2, then we can calculate the number of PDFOA molecules needed to cover the total surface area of all ethanol droplets from Equation 4 as: Total number of PDFOA molecules needed to cover the total surface area of all ethanol droplets=760966 cm^2/30×10^−16 cm^2=2.537×10^20 molecules of PDFOA. (Equation 5) Thus, 2.537×10^20 molecules of PDFOA would theoretically be needed to coat all of the surface area provided by all of the ethanol droplets. The ratio of ethanol to PDFOA molecules 65.7% through the microemulsion window was 10:1. […] The actual amount of PDFOA used to prepare the microemulsion was 0.3195 g which was within 3% of the predicted amount (0.3195 g/0.3282 g=0.973 or 97.3%) based on the measured droplet size of ethanol. Thus, this simple modeling supports the formation of a E/F microemulsion as well as the particle sizing method used.
To determine the existence of an oil-in-water microemulsion window for the microemulsion precursor, exactly two (2) milligrams of emulsifying wax were weighed accurately into ten separate 7-mL glass vials and melted at 50° C. on a temperature calibrated magnetic hot plate. Water (0.2 μm filtered) was then added (750–1000 μL) to form a homogeneous milky slurry in the stirring water at 50° C. To form the microemulsion precursor, the surfactant polyoxy 20 stearyl ether (100 mM) in water was added (0–250 μL) so that the final surfactant concentration ranged from 0 mM to 25 mM in the ten vials. The microemulsion precursor was then removed from heat (52–54° C.) and allowed to cool to 25° C. while stirring. […] Thus, an apparent microemulsion window was defined. One hundred (100) μL of each cooled system was taken and diluted with 900 μL water. The particle size of the diluted solid nanoparticles was determined using a Coulter N4 Plus Sub-Micron Particle Sizer at 20° C. by scattering light at 90° for 120 seconds. The particle sizes of systems with no surfactant added could not be determined since the systems contained precipitates that were greater than 3000 nm in diameter. […] To determine if the measured droplet sizes in either the microemulsion nanotemplate or the cured solid nanoparticles were due to the presence of surfactant micelles, samples were made as described above with no emulsifying wax and with final surfactant concentrations ranging from 0 mM to 100 mM in water. […] It is likely that the relatively heterogeneous nature of the polymeric surfactant makes the determination of its CMC difficult using conventional techniques. Photon correlation spectroscopy, using a Coulter N4 Plus Submicron Particle Sizer, was used to determine the existence and the size of the surfactant micelles.
Preparation of cationic nanoparticles made from microemulsion precursors: Exactly 2 mg of emulsifying wax was placed into six 7-ml glass scintillation vials. […]

[3] = Pseudo-phase diagram fluorosurfactant screen: ethanol incorporation in E/F microemulsions; type: physicochemical; conditions: maximum ethanol in stable clear E/F microemulsion
Protocol: Pseudo-Phase Diagrams: Fluorosurfactant Screen. Studies focused on E/F microemulsions that allowed for maximum solubilization of ethanol. […] Briefly, a small amount of ethanol was added to defined perflubron (X %)/(fluorosurfactant) (100-X %) mixtures in an attempt to solubilize ethanol and define the microemulsion window (i.e., portion of diagram that represents a clear system). […] While the mixture was stirring, ethanol was added in 5 μL (=[…] ethanol) aliquots. The clarity (transparency) of the systems as a function of the percentages of the three phases was plotted in order to define the microemulsion window, if any. This screen was repeated for each of the fluorosurfactant candidates.

Compound: OCCC(F)(F)C(F)(F)C(F)(F)C(F)(F)C(F)(F)C(F)(F)F [D3, Tridecafluoro-1-octanol]
- Solubility in perflubron [1]: soluble

Compound: O=C(O)C(F)(F)C(F)(F)C(F)(F)C(F)(F)C(F)(F)C(F)(F)F [D5, Tridecafluoroheptanoicacid]
- Solubility in perflubron [1]: soluble

Compound: COC(=O)C(F)(F)C(F)(F)C(F)(F)C(F)(F)C(F)(F)C(F)(F)C(F)(F)F [D8, Pentadecafluoromethyloctanoate]
- Solubility in perflubron [1]: soluble

Compound: CC(=O)C=C(C)[O-].CC(=O)C=C(C)[O-].CC(=O)C=C(C)[O-].[Gd+3] [GdAcAc, Gadolinium acetylacetonate]
- Effect of GdAcAc entrapment on particle sizes of cured nanoparticles ([2]; 0.1 mg to 1 mg in emulsifying wax and Brij 72 nanoparticles (2 mg/mL)): little or no effect
- Particle size of cured nanoparticles ([2]; cooled to 25° C.): about 50 nm

Compound: O=C(O)C(F)(F)C(F)(F)C(F)(F)C(F)(F)C(F)(F)C(F)(F)C(F)(F)F [PDFOA, Pentadecafluorooctanoicacid]
- Solubility in perflubron [1]: did not dissolve
- Final (Ethanol) % w/w Solubilized in Perflubron/Fluorosurfactant (70/3 w/w) [3]: up to 37.2 % w/w
- Final (Ethanol) % w/w Solubilized in Perflubron/Fluorosurfactant (70/3 w/w) ([3]; listed as Pentadecafluorooctanoicacid (PDFOA)): 37.2 % w/w

Compound: O=C(O)C(F)(F)C(F)(F)C(F)(F)C(F)(F)C(F)(F)C(F)(F)C(F)(F)C(F)(F)C(F)(F)C(F)(F)C(F)(F)F [Perfluorododecanoicacid (D7), Perfluorododecanoicacid]
- Final (Ethanol) % w/w Solubilized in Perflubron/Fluorosurfactant (70/3 w/w) [3]: 59.2 % w/w

Compound: O=C(O)C(F)(F)C(F)(F)C(F)(F)C(F)(F)C(F)(F)C(F)(F)C(F)(F)C(F)(F)C(F)(F)C(F)(F)C(F)(F)C(F)(F)C(F)(F)F [Perfluorotetradecanoicacid (D6), Perfluorotetradecanoicacid]
- Final (Ethanol) % w/w Solubilized in Perflubron/Fluorosurfactant (70/3 w/w) [3]: 66.6 % w/w

Compound: ASF-pal: asialofetuin derivatized with about 12 palmitate arms per molecule, hepatocyte-specific ligand
- Size of micelles formed alone in water ([2]; 67 μg/mL): 3–15 nm
- Size of larger aggregates formed alone in water ([2]; 1340 μg/mL): 40–300 nm
- Size of micelles formed alone in water ([2]; 1340 μg/mL): 3–10 nm
- Effect of adding ASF-pal on particle size of cured nanoparticles ([2]; ASF-pal added to 200 μg nanoparticles per mL, 1 hour at 25° C.): only a small effect
